Laboratory results from patent US8128802B2, “Analysis apparatus and analysis method for glycosylated hemoglobin” (OJI Paper Co., Ltd, priority 2005, dated 2012).

Legend:
Format in all cases: biochemical
[1] = tested on: fructosyl peptide oxidase; experiment: Substrate specificity, pH profile and stability of fructosyl peptide oxidase-immobilized column (Example 1); settings: for Relative activity (%) pH 6.0: buffer pH 6.0; for Relative activity (%) pH 6.0 / Relative activity (%) pH 7.0 / Relative activity (%) pH 8.0: normalized to 100 for the response to fructosyl valine at each pH, 30° C.; for Relative activity (%) pH 7.0: buffer pH 7.0; for Relative activity (%) pH 8.0: buffer pH 8.0
Method: Firebrick powder (150 mg, 30 to 60 meshes) was thoroughly dried, immersed in a 10% solution of γ-aminopropyltriethoxysilane in anhydrous toluene for one hour, then thoroughly washed with anhydrous toluene and dried. The aminosilane-modified support was immersed in a 5% aqueous glutaraldehyde solution for one hour, and then thoroughly washed with distilled water, followed by substitution with 100 mM sodium phosphate buffer (pH 7.0). The buffer was removed as far as possible. A solution ([…]) of fructosyl peptide oxidase (140 units/mL, from Kikkoman Co.) in 100 mM sodium phosphate buffer (pH 7.0) was contacted with the formylated firebrick powder, and then incubated at 0 to 4° C. for one day for the enzyme immobilization. The support immobilized enzyme was packed into a column (internal diameter: 3.5 mm, length: 30 mm) to give the fructosyl peptide oxidase-immobilized column.
The buffer was pumped out from a buffer tank (1) using a pump (2), and 5 μL of a sample was injected using a valve (4). A protease-immobilized column (14), a flow type calorimeter (16), a second immobilized enzyme column (19) and a second electrode for hydrogen peroxide (20) were not placed, and a fructosyl peptide oxidase-immobilized column was placed as a first immobilized enzyme column (17), followed by an electrode for hydrogen peroxide (18) downstream thereof. The injected sample transferred with the flowing buffer, passed through a mixing coil (15) inside an incubator (13), and thus the sample temperature was adjusted and the sample was mixed with the buffer. The sample passed through the fructosyl peptide oxidase-immobilized column (17) and the electrode for hydrogen peroxide (18) to produce hydrogen peroxide from fructosyl valylhistidine in the sample, and then the change of the current was detected.
A composition of the buffer used in this assay apparatus contained 100 mM phosphoric acid, 50 mM potassium chloride and 1 mM sodium azide, and its pH was 7.0.
(§1) The flow rate of the buffer was 1.0 mL/minute, and the temperature in the incubator was 30° C.
Using the assay apparatus described in (3), a 5 μL portion of fructosyl glycine, fructosyl valine or fructosyl valylhistidine was injected, and the characteristics of the fructosyl peptide oxidase-immobilized column was examined.
When pH of the buffer was 6.0, 7.0 or 8.0, the assay results of the activity for the oxidation of fructosyl glycine (FG), fructosyl valine (FV) or fructosyl valylhistidine (FVH) were shown in FIG. 3. For fructosyl glycine the activity was high at pH 8.0, but the activity at pH 6.0 was decreased to about 50% of that at pH 8.0. For fructosyl valine and fructosyl valylhistidine, the activity was high at pH 6.0 and 7.0.
Response values in Table 1 were normalized to 100 for the response to fructosyl valine at each pH.

[2] = tested on: fructosyl amino acid oxidase; experiment: Substrate specificity of fructosyl amino acid oxidase-immobilized column (Example 3); settings: buffers pH 8.0; for Relative response value: normalized to 100 for the response to fructosyl glycine, 37° C., dialysis module
Excerpt: The buffer was removed as far as possible. […] The support immobilized enzyme was packed into the column (internal diameter: 3.5 mm, length: 30 mm) to give the fructosyl amino acid oxidase-immobilized column. In the assay apparatus shown in FIG. 2, the flow type calorimeter (16), the protease-immobilized column (14) and the first immobilized enzyme column (17) were not disposed, and the electrode for glucose was placed in the electrode for hydrogen peroxide (18), the fructosyl amino acid oxidase-immobilized column in the second immobilized enzyme column (19), and the electrode for hydrogen peroxide in the electrode for hydrogen peroxide (20). The buffer B was pumped out from the buffer tank (24) using the pump (25), and a 100 μL portion of the sample was injected using the valve (4). […] Since the buffer A was pumped out from the buffer tank (1) by the pump (2), the components with low molecular weight in the sample dialyzed in the dialysis module (27) passed through the electrode for glucose (18), the fructosyl amino acid oxidase-immobilized column (19) and the electrode for hydrogen peroxide (20), and hydrogen peroxide from glucose and fructosyl amino acid in the sample was detected. […] The temperature in the incubator was 37° C. The substrate specificity of fructosyl amino acid oxidase-immobilized column for various fructosyl amino acids, fructosyl peptides, amino acids and sugars was examined using the assay apparatus mentioned in (4) when pH of the buffers was 8.0.

[3] = tested on: fructosyl peptide oxidase; experiment: Substrate specificity of fructosyl peptide oxidase-immobilized column (Example 4); settings: buffer A pH 7.0; normalized to 100 for the response to fructosyl valine; 30° C.
Method: In the same way as described in Example 1 (1), 150 mg of firebrick powder (30 to 60 meshes) was formylated. The solution (200 μL) of fructosyl peptide oxidase (140 units/mL, from Kikkoman Co.) in 100 mM sodium phosphate buffer (pH 7.0) was contacted with the formylated firebrick powder, and then incubated at 0 to 4° C. for one day for the enzyme immobilization.
In the assay apparatus shown in FIG. 1, the protease-immobilized column (14), the flow type calorimeter (16) and the first immobilized enzyme column (17) were not disposed, and the electrode for glucose was placed in the electrode for hydrogen peroxide (18), the fructosyl peptide oxidase-immobilized column in the second immobilized enzyme column (19), and the electrode for hydrogen peroxide in the electrode for hydrogen peroxide (20). The buffer A was pumped out from the buffer tank (1) by the pump (2), and a 5 μL portion of the sample was injected using the valve (4). The injected sample transferred with the flowing buffer A, passed through the mixing coil (15) in the incubator (13), and thus the sample temperature was adjusted and the sample was mixed with the buffer. And then the sample passed through the downstream electrode for glucose (18), fructosyl peptide oxidase-immobilized column (19) and an electrode for hydrogen peroxide (20), hydrogen peroxide was produced from fructosyl valylhistidine in the sample, and the change of the current was detected.
The composition of the buffer A for the assay apparatus contained 100 mM phosphoric acid, 50 mM potassium chloride and 1 mM sodium azide, and its pH was 7.0.
as §1
On fructosyl peptide oxidase-immobilized column, the substrate specificity for various fructosyl amino acids, fructosyl peptides, amino acids and sugars was examined using the assay apparatus mentioned in (4) when pH of the buffer A was 7.0. In the Table 4, the relative values were normalized to 100 for the response to fructosyl valine.

[4] = tested on: fructosyl amino acid oxidase; experiment: Characteristics of fructosyl amino acid oxidase-immobilized column (Example 5); settings: sample concentration 10 mM; buffer pH 8.0, 37° C.
Method: FIG. 1 was the flow type assay apparatus with one flow path. The buffer A was pumped out from the buffer tank (1) using the pump (2), and a 5 μL portion of the sample was injected using the valve (4). The fructosyl amino acid oxidase-immobilized column was placed in the first immobilized enzyme column (17) and the electrode for hydrogen peroxide was placed downstream. The second immobilized enzyme column (19), the second electrode for hydrogen peroxide (20), the protease-immobilized column (14) and the flow type calorimeter (16) were not disposed. The injected sample transferred with the flowing buffer, passed through the mixing coil (15) in the incubator (13), and thus the sample temperature was adjusted and the sample was mixed with the buffer. The sample passed through the fructosyl amino acid oxidase-immobilized column (17) and the electrode for hydrogen peroxide (18), hydrogen peroxide was produced from fructosyl valine in the sample, and the change of the current was detected.
The composition of the buffer for this assay apparatus contained 100 mM phosphoric acid, 50 mM potassium chloride and 1 mM sodium azide, and its pH was 8.0.
The flow rate of the buffer was 1.0 mL/minute, and the temperature in the incubator was 37° C.
Using the assay apparatus 1 mentioned in (3), a 5 μL portion of fructosyl glycine was injected, and the characteristics of the fructosyl amino acid oxidase-immobilized column was examined.
When pH in the buffer was 7.0, 7.5, 8.0, 8.5 or 9.0, the activity in the oxidation of fructosyl glycine was measured.

| SMILES | Relative activity (%) pH 6.0 [1] [%] | Relative activity (%) pH 7.0 [1] [%] | Relative activity (%) pH 8.0 [1] [%] | Relative response value [2] | Relative response value [3] | Relative activity (%) [4] [%] | pH at which activity was maximized ([1]; buffer pH 6.0, 7.0 or 8.0 tested) | response of fructosyl amino acid oxidase-immobilized column [2] |
| --- | --- | --- | --- | --- | --- | --- | --- | --- |
| C[C@H](N)C(=O)O [Ala] | 0 | 0 | 0 | 0.0 | 0.0 | 0.0 |  |  |
| N=C(N)NCCC[C@H](N)C(=O)O [Arg] | 0 | 0 | 0 | 0.0 | 0.0 | 1.0 |  |  |
| NC(=O)C[C@H](N)C(=O)O [Asn] | 0 | 0 | 0 | 0.0 | 0.0 | 0.0 |  |  |
| N[C@@H](CC(=O)O)C(=O)O [Asp] | 0 | 0 | 0 | 0.0 | 0.0 | 0.0 |  |  |
| N[C@@H](CS)C(=O)O [Cys] |  |  |  |  |  | 507.0 |  |  |
| OC[C@@H](O)[C@@H](O)[C@H](O)[C@@H](O)CO [D-Sorbitol] | 0 | 0 | 0 | 0.0 | 0.0 | 0.0 |  |  |
| CC(C)[C@H](NC1(CO)O[C@H](CO)[C@@H](O)[C@@H]1O)C(=O)N[C@@H](Cc1c[nH]cn1)C(=O)O (stereo partly drawn) [Fructosyl valyl histidine] | 88 | 87 | 66 | 1.3 | 86.8 |  | 7.0 | scarcely responded |

Further lines, with some results ahead:

| Relative activity (%) pH 6.0 [1] [%] | Relative activity (%) pH 7.0 [1] [%] | Relative activity (%) pH 8.0 [1] [%] | Relative response value [2] | Relative response value [3] | Relative activity (%) [4] [%] | SMILES | pH at which activity was maximized ([1]; buffer pH 6.0, 7.0 or 8.0 tested) | response of fructosyl amino acid oxidase-immobilized column [2] |
| --- | --- | --- | --- | --- | --- | --- | --- | --- |
| 0 | 0 | 0 | 0.0 | 0.0 | 1.0 | O=C(CO)[C@@H](O)[C@H](O)[C@H](O)CO [Fructose] |  |  |
| 0 | 0 | 0 | 0.0 | 0.0 | 0.0 | O=C[C@H](O)[C@@H](O)[C@@H](O)[C@H](O)CO [Galactose] |  |  |
| 0 | 0 | 0 | 0.2 | 0.0 | 6.0 | NC(=O)CC[C@H](N)C(=O)O [Gln] |  | extremely small responses |
| 0 | 0 | 0 | 0.0 | 0.0 | 0.0 | N[C@@H](CCC(=O)O)C(=O)O [Glu] |  |  |
| 0 | 0 | 0 | 0.0 | 0.0 | 0.0 | NCC(=O)O [Gly] |  |  |
| 0 | 0 | 0 | 0.0 | 0.0 | 0.0 | OCC(O)CO [Glycerol] |  |  |
| 0 | 0 | 0 | 0.0 | 0.0 | 0.0 | N[C@@H](Cc1c[nH]cn1)C(=O)O [His] |  |  |
| 0 | 0 | 0 | 0.0 | 0.0 | 0.0 | CC(C)C[C@H](N)C(=O)O [Leu] |  |  |
